Where only a bound is given, the exact number is not on record here.

The nature of series [1]: Fluorescence quantum yield determination. It counts as physicochemical. Particulars: DMSO; reference rhodamine B in ethanol or quinine sulfate in 0.5 M H2SO4. How it is done:
The ^1H NMR spectroscopic measurements were carried out using a Bruker-600 NMR at 600 MHz with tetramethysilane (TMS) as internal reference. Electrospray ionization (ESI) mass spectra were performed on a Bruker MicroToF ESI LC-MS System in positive-ion mode. The steady-state absorption spectra were obtained with a ThermoFisher Evolution 220 UV-Vis spectrophotometer in 1 cm path length quartz cells. Fluorescence spectra were recorded using spectrophotometer (SPEX FluoroLog-3). Quantum yield in DMSO was measured relative to the fluorescence of Rhodamine B (Φ=0.65) in ethanol or quinine sulfate (Φ=0.55) in 0.5 M·L^−1 H2SO4. FT-IR spectrum was taken on a PerkinElmer Spectrum 100 FT-IR Spectrometers. Confocal fluorescent images of living cells were performed using Nikon A1R-si Laser Scanning Confocal Microscope (Japan), equipped with lasers of 405/488/561/638 nm. STORM images were performed on a NSTORM (Nikon, Japan), featuring a CFI Apo TIRF 100× oil objective (NA 1.49) on an inverted Nikon Ti Eclipse microscope with a quad cube filter (Chroma, zt405/488/561/640 m-TRF), piezo stage, and Perfect Focus System (Nikon) for Z-stability. Light source are hand-held UV lamp, BlueView Transilluminator (470 nm centred, Vernier), Prior Lumen200 with 615/30 filter and 850 LED (Mouser Electronics).
Quantum yields were measured with Rhodamine B as reference (Φ=0.65) or quinine sulfate (Φ=0.55) in 0.5 M H2SO4. Fluorescence measurements were performed in 1 cm quartz cells with 5 μM samples in DMSO on spectrophotometer (SPEX FluoroLog-3) (slits 5×5). The fluorescence quantum yield, Φ (sample), were calculated according to equation as following:
[formula] Φ: quantum yield; I: integrated emission intensity; OD: optical density at the excitation wavelength; d: refractive index of solvents, dDMSO=1.478; dethanol=1.36; dwater=1.33.

The test system of a further series is 3T3-L1 cells. The series can be described thus: CCK-8 assay (cytotoxicity). In kind it is cell-based. The settings on record: 4 μM, 24 hours, Cell Counting Kit-8. How it is done: Before testing the utility of thio-caged fluorophores for investigating biological systems, the cytotoxicity of SNile Red in adipocytes was evaluated using Cell Counting Kit-8. At a concentration of 4 μM SNile Red, 90% of 3T3-L1 cells remained viable even after 24 hours (FIG. 10). Thio-caged dyes were then used to obtain subcellular structural data via fluorescence imaging of adipocytes. Nile Red and BODIPY are the fluorescent dyes most commonly used for lipid imaging (Corsaro and Pistara, 1998, Spiller et al., 1998, Tang et al., 2013). Confocal laser scanning microscopy (CLSM) was used to determine the specificity of SNile Red localization in adipocytes differentiated from 3T3-L1 cells. For colocalization studies, adipocytes were stained with 2 μM SNile Red and 100 nM BODIPY 493/503 for 10 mins.
3T3-L1 cells were seeded in flat-bottomed 96-well plates, 1×10^4 cells per well, with 200 μL complete culture media for 24 h. […] After 2 hours, the absorbance at 450 nm was read by 96-well plates reader. The viability of […] cells was calculated by the following equation: CV=(As−Ab)/(Ac−Ab)×100%
CV stands for the viability of cells, As, Ac and Ab stand for the absorbance of cells containing SNile Red cell control (0 μM SNile Red) and blank control (wells containing neither cells nor SNile Red).

Regarding `CCN(CC)c1ccc2nc3c4ccccc4c(=S)cc-3oc2c1` [SNile Red], the “ø (fluorescence quantum yield)” value in series [1] is <0.001. Moreover, the cells remaining viable in the series with 3T3-L1 cells is given as 90%.

Source of the values: US11913884B2, “Visible light-activated dyes and methods of use thereof” (William Marsh Rice University, priority 2019, dated 2024).
